Reference: patent publication US20100160304A1, “AROMATIC SULFONE COMPOUND AS ALDOSTERONE RECEPTOR MODULATOR” (Dainippon Sumitomo Pharma Co., Ltd, priority 2005, published 2010)

target: T1, aldosterone receptor MR (Rattus norvegicus, UniProt P22199); assay: Aldosterone receptor binding assay ([3H]aldosterone, soluble fraction of rat kidney); conditions: [3H]aldosterone 2 nM, 2 μM RU-486, 4° C. about 18 hours
T1 construct: the resultant supernatant was being a soluble fraction of the kidney; from tissue; host or cells: kidney of adrenalectomized rat, 105,000 G supernatant (soluble fraction)
T1 sequence (P22199 1-981): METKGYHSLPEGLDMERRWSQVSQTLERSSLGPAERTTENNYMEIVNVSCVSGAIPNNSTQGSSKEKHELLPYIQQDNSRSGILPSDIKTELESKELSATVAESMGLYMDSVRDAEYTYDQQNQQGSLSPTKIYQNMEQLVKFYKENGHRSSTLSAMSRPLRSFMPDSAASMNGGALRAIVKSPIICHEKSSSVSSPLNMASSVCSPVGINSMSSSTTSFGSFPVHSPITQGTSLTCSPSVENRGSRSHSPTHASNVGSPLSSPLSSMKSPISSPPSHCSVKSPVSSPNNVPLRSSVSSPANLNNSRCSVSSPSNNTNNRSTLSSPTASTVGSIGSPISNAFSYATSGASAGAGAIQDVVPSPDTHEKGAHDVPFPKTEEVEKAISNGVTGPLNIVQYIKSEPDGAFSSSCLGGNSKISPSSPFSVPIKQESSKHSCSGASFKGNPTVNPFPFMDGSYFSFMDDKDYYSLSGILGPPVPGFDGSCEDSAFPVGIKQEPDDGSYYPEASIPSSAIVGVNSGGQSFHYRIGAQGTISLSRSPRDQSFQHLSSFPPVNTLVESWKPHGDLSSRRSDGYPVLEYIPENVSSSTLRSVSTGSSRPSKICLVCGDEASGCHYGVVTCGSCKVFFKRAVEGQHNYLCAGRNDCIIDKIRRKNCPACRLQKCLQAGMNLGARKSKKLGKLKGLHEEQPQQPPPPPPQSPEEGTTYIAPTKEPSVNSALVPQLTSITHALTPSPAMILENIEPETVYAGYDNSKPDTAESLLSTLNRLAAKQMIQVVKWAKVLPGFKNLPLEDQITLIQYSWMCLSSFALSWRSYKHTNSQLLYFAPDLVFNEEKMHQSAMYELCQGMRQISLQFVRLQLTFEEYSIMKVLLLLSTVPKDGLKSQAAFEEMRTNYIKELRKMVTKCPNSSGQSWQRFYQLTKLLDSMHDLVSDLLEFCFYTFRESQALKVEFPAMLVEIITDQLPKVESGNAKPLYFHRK
Method: Flank incision (both sides) was subjected to a rat to adrenalectomize. After suturing the rat's incised parts, the rat was again returned to a breeding cage and bred for a duration of 3 to 5 days to collect a kidney from the rat; the collected kidney was homogenized with 0.1 M Tris-HCl, 0.25M sucrose, 0.1M Na2MoO4, 2 mM DTT buffer solution (pH 7.4), the resultant solution was subjected to centrifugal separation at 105,000 G for 30 minutes, and the resultant supernatant was being a soluble fraction of the kidney.
Thereafter, the reactant solution was added with 50 μL of 5% dextran coated charcoal and mixed, and then centrifugated at 3,000 G for 5 minutes. Subsequently, 100 μL of the supernatant was collected and mixed with 3.5 mL of liquid scintillator ACS-II (Amersham) to measure a radioactivity with a liquid scintillation counter (manufactured by Packard, Tri Carb 2700TR). A non-specific binding was determined by adding 2 μM of aldosterone to the reactant solution.
Binding inhibiting rate (%)=10−[(B−N)/(B0−N)]×100
B: Binding amount of the marker ligand in the co-presence of the tested substance and marker ligand,
B0: Binding amount of the marker ligand in the absence of the tested substance, and
N: Binding amount of the marker ligand in the presence of excess aldosterone (2 μM).

SMILES | IC50 [nM]
CC1=CC(C)(C)Nc2ccc(NS(=O)(=O)c3ccc(Cl)s3)cc21 [Example 66, 5-Chloro-N-(2,2,4-trimethyl-1,2-dihydroquinolin-6-yl)thiophene-2-sulfonamide] | 1300
Cc1ccc(S(=O)(=O)Cc2ccc3c(c2)C(C)CC(C)(C)N3)cc1 (centres unmarked) [Example 96, 2,2,4-Trimethyl-6-{[(4-methylphenyl)sulfonyl]methyl}-1,2,3,4-tetrahydroquinoline] | 500
Cc1ccc(S(=O)(=O)Cc2cnc3c(c2)C(C)(C)OC(=S)N3)cc1 [Example 36, 4,4-Dimethyl-6-{[(4-methylphenyl)sulfonyl]methyl}-1,4-dihydro-2H-pyrido[2,3-d][1,3]oxazin-2-thione] | 1300
Cc1ccc(S(=O)(=O)Nc2ccc3c(c2)C(C)CC(C)(C)N3)cc1 (centres unmarked) [Example 97, 4-Methyl-N-(2,2,4-trimethyl-1,2,3,4-tetrahydroquinolin-6-yl)benzenesulfonamide] | 2200
COC(=O)C(=O)N(c1ccc2c(c1)C(C)=CC(C)(C)N2)S(=O)(=O)c1cccs1 [Example 91, Methyl Oxo[(2-thienylsulfonyl)-(2,2,4-trimethyl-1,2-dihydroquinolin-6-yl)amino]acetate] | 100

Stronger by IC50, values ahead:

IC50 [nM] | SMILES
13 | CC1(C)OC(=S)Nc2ccc(NS(=O)(=O)c3cccs3)cc21 [Example 24, N-(4,4-Dimethyl-2-thioxo-1,4-dihydro-2H-3,1-benzoxazin-6-yl)thiophene-2-sulfonamide]
7 | Cc1ccc(S(=O)(=O)Cc2ccc3c(c2)C(C)(C)OC(=S)N3)cc1 [Example 16, 4,4-Dimethyl-6-{[(4-methylphenyl)sulfonyl]methyl}-1,4-dihydro-2H-3,1-benzoxazin-2-thione]

system: decrease of Na/K ratio in urine induced with aldosterone; assay: Antagonistic action (in vivo antagonist activity) against decrease of Na/K ratio in urine induced with aldosterone, adrenalectomized rat; conditions: oral 10 and 30 mg/kg, 30 minutes before subcutaneous aldosterone, urine collection 4 hours (FIG. 1)
Method: After anesthetizing a rat by administering 50 mg/kg of sodium pentobarbital in its abdominal cavity and disinfecting its skin with the Isodine diluted solution, the rat was incised. After adrenalectomy and confirming the hemostasis, the muscular layer and skin were sutured in this order and then the sutured part was disinfected with the Isodine diluted solution. After breeding 3 days or more, a rat showing good progress was subjected to the following test.
It was fasted from the day preceding an examination, put into a metabolic cage at the day of the examination, and then subjected to a urine collection for 4 hours. When a substance to be tested was administered orally, it was administered in an amount of 5 ml/kg with 0.5% methylcellulose as a solvent. The aldosterone was dissolved with 1% ethanol/physiological saline and administered subcutaneously. The substance to be tested was administered 30 minutes before administering aldosterone. In order to stabilize and sufficiently secure the amount of the urine, physiological saline was administered orally in an amount of 20 ml/kg at the time of administering aldosterone. The colleted urine, after measuring its volume, was subjected to a measurement of electrolyte (sodium: Na and potassium: K) concentration in the urine with a biochemistry autoanalyzer (manufactured by Beckman, Synchron CX3 system Delta).

SMILES | inhibition of the decrease of the urine Na/K ratio induced with aldosterone
CC1(C)OC(=S)Nc2ccc(NS(=O)(=O)c3cccs3)cc21 [Example 24, N-(4,4-Dimethyl-2-thioxo-1,4-dihydro-2H-3,1-benzoxazin-6-yl)thiophene-2-sulfonamide] | dose-dependently inhibited the decrease of the urine Na/K ratio
